Assay results reported in patent US4312861A, “Pharmaceutical compositions containing N-alkyl-N-(nuclearly-substituted) benzylamines having vasotonia-regulating activity” (Hoechst Aktiengesellschaft, priority 1974, dated 1982).

How the values were obtained:
perfused rabbit ear = experiment: Blood-flow change in perfused isolated rabbit ear, vaso-dilator activity (Ringer-Norfenefrin solution)
Method: (3) Blood-flow change in an isolated rabbit ear
The tests were carried out according to Krakow-Pissemski (Pflugers Archiv 151 (1913), page 583 and 156 (1914), page 426). In Table 5a the estimated values of the vaso-constrictor activity in Ringer solutions of varying concentrations are given and in Table 5b values for vasodilatory activity in Ringer-Norfenefrin solutions of varying concentrations are given. As a comparison, the values obtained with the known preparation aescin sodium are given.

[1] = test system: isolated guinea-pig heart; experiment: Relative coronary blood-flow change in isolated guinea-pig heart (Langendorff)
Method: (4) Relative coronary blood-flow change in an isolated guinea-pig heart.
The tests were carried out according to the method of Langendorff (Pflugers Archiv. 61 (1895), page 219).
In Table 5, the change in coronary blood flow after administration of various quantities of the test substance is compared with that after administration of the known compounds heptaminol and Aescin sodium salt.

[2] = test system: permeability of the capillaries; experiment: Histamine rash test (modified Halpern), capillary permeability; type: in vivo; conditions: 30 minutes before histamine
Method: The test according to Halpern (Presse medicale 65 (1949), page 949) was used in modified form. The suppressive effect of the compounds according to the invention on the permeability of the capillaries was tested. The blue coloration induced by intravenous administration of trypan blue at two intracutaneous histamine injection points per animal, (trypan blue administered 2 minutes before the histamine), was estimated according to the following scale of values:
indications of blue coloration
clear blue coloration =4
stong blue coloration =6
The preceding evaluation was made from the combined effect at the two injection points.
The test substances were administered i.p. 30 minutes before the histamine injection.

[3] = Toxicity in the mouse (Litchfield and Wilcoxon); type: in vivo; conditions: mouse, in vivo
Method: (6) Toxicity in the mouse
Toxicity was determined according to Litchfield and Wilcoxon (J. Pharmacol. exp. Ther. 97 (1949), page 399) in the mouse. In comparison, the values with the known substance aescin sodium salt were determined. Comparative tests with 0.1% solution, of venous and optical compatibility on the rabbit yielded similar results.

[4] = test system: carrageenin oedema in the rat paw; experiment: Suppression of carrageenin oedema in the rat paw (Siegmund); type: in vivo; conditions: 3 h p.a.
Method: (7) Suppression of carrageenin oedema in the rat paw
The inflammation-reducing and anti-oedematous effects on carrageenin and serotonin oedemas in the rat paw were studied according to Siegmund et al (Proc. Soc. exp. Biol. Med. 95 (1957), page 729). The values are given as percentages, based on the values obtained in control tests using a dummy procedure. In this way, the antiphlogistic activity of the substances according to the invention was tested.

isolated portal vein = experiment: Isolated rat's portal vein (Berti), increase in tonus
Method: (2) Isolated rat's portal vein
The tests on the rat's portal vein, an organ with its own rhythm, were performed according to the method of Berti et al (Arch. int. Pharmacodyn. 184 (1970), page 328). In Table 4, the increase in tonus at various adrenalin concentrations is given in milligrams. As a comparison, the values for the known substance heptaminol (=6-amino-2-methylheptane-2-ol) are also given.

[5] = test system: writhing movements in the mouse; experiment: Writhing test (Winter); type: in vivo; conditions: 50 mg/kg p.o.
Description: The analgesic activity of the compounds according to the invention were studied by the method of Winter et al (Proc. Soc. exp. Biol. Med, 111 (1962), page 544), in which the suppression of writhing movements in the mouse was observed.

[6] = 10 μg (first figure where two are given)
[7] = 30 μg (first figure where two are given)
[8] = 100 μg (first figure where two are given)

Structure (SMILES) | Relative change in blood flow, vaso-dilator activity (perfused rabbit ear; 3 × 10^-5 g/ml) | Relative change in coronary blood flow [1, 6] | Relative change in coronary blood flow [1, 7] | LD50 ([3]; ip) [mg/kg] | further results
CCCCCC(C)NCc1c(C)cc(C)cc1C (single isomer, unassigned) [compound 3] | +38 | +14 | +19 | 50 to 100 | Relative change in blood flow, vaso-dilator activity (perfused rabbit ear; 10^-5 g/ml): +105; Relative change in blood flow, vaso-dilator activity (perfused rabbit ear; 10^-6 g/ml): +43; Relative change in blood flow, vaso-dilator activity (perfused rabbit ear; 10^-7 g/ml): +3; Relative change in coronary blood flow [1, 8]: +30; Histamine rash test, blue coloration score (0 = none, 2 = indications, 4 = clear, 6 = strong) ([2]; 1.0 mg/kg i.p.): 2.5; Histamine rash test, blue coloration score (0 = none, 2 = indications, 4 = clear, 6 = strong) ([2]; 3.0 mg/kg i.p.): 2.5; LD50 ([3]; iv): 10.8 mg/kg; Suppression of carrageenin oedema in the paw (antiphlogistic activity) ([4]; 100 mg/kg p.o.): 11%
CCCC(C)NCc1c(C)cc(C)cc1C (stereo not shown) [compound 24] |  |  |  | 50 to 100 | 
COCCCNCc1c(C)cc(C)cc1C [compound 20] | +30 |  |  | 50 to 100 | Relative change in blood flow, vaso-dilator activity (perfused rabbit ear; 10^-4 g/ml): +131; Relative change in blood flow, vaso-dilator activity (perfused rabbit ear; 10^-5 g/ml): +4; Relative change in blood flow, vaso-dilator activity (perfused rabbit ear; 10^-6 g/ml): +12
CCCCCC(C)N(Cc1c(C)cc(C)cc1C)CP(C)(C)=O (stereo not shown) [compound 30] | +67 | +158 | +211 | 100 to 250 | Relative change in blood flow, vaso-dilator activity (perfused rabbit ear; 10^-5 g/ml): +79; Relative change in coronary blood flow [1, 8]: +232
CCCCCC(C)NCc1c(C)c(C)cc(C)c1C (stereo not shown) [compound 1] |  | +53 | +130 | 50 to 100 | Relative change in coronary blood flow, second figure after slash ([1]; 10 μg): -14; Relative change in coronary blood flow, second figure after slash ([1]; 30 μg): -11
Cc1cc(C)c(CNCCCC(C)C)c(C)c1 [compound 19] |  | +30 | +71 | 100 to 250 | Relative change in coronary blood flow, second figure after slash ([1]; 10 μg): -15; Relative change in coronary blood flow, second figure after slash ([1]; 30 μg): -10
CCCCCNCc1c(C)cc(C)cc1C [compound 14] |  |  |  | 50 to 100 | 
CCCCCCOCCCNCc1c(C)cc(C)cc1C [compound 22] | 0 |  | +109 | 25 to 50 | Increase in tonus, isolated rat's portal vein (isolated portal vein; 10^-4 g/ml): +271 milligrams; Increase in tonus, isolated rat's portal vein (isolated portal vein; 10^-5 g/ml): +225 milligrams; Increase in tonus, isolated rat's portal vein (isolated portal vein; 10^-6 g/ml): +65 milligrams; Increase in vasotonus compared with heptaminol (isolated portal vein; in words): distinctly stronger increase in vasotonus than the comparison substance heptaminol; Histamine rash test, blue coloration score (0 = none, 2 = indications, 4 = clear, 6 = strong) ([2]; 1.0 mg/kg i.p.): 2.6; Histamine rash test, blue coloration score (0 = none, 2 = indications, 4 = clear, 6 = strong) ([2]; 3.0 mg/kg i.p.): 1.3
CCCCCCCCNCc1c(C)cc(C)cc1C [compound 17] |  |  | +138 | 25 to 50 | 
CCCCCCCCCNCc1c(C)cc(C)cc1C [compound 18] |  |  |  | 50 to 100 | 
CCCCCC(C)NCc1c(Cl)cccc1Cl (stereo not shown) [compound 10] |  | +33 |  |  | 
CCC(C)CC(C)NCc1c(C)cc(C)cc1C (stereo not shown) [compound 28] | +47 |  | +118 | 50 to 100 | Increase in tonus, isolated rat's portal vein (isolated portal vein; 10^-4 g/ml): +84 milligrams; Increase in tonus, isolated rat's portal vein (isolated portal vein; 10^-5 g/ml): +57 milligrams; Increase in tonus, isolated rat's portal vein (isolated portal vein; 10^-6 g/ml): +21 milligrams; Relative change in coronary blood flow [1, 8]: +226; Histamine rash test, blue coloration score (0 = none, 2 = indications, 4 = clear, 6 = strong) ([2]; 3.0 mg/kg i.p.): 2.9
CCCCCC(C)NCc1c(C)cc(C(C)(C)C)cc1C (stereo not shown) [compound 5] |  | +118 | +280 |  | 
CCCCCC(C)NCc1ccc(Cl)cc1 (single isomer, unassigned) [compound 8] | +66 |  |  | 25 to 100 | Relative change in blood flow, vaso-dilator activity (perfused rabbit ear; 10^-6 g/ml): +3; Suppression of writhing movements [5]: 15%
CCCCCC(C)NCc1cccc(Br)c1 (stereo not shown) [compound 11] |  |  |  | 100 to 250 | 
CCCCCC(C)NCc1ccc([N+](=O)[O-])cc1 (stereo not shown) [compound 13] |  |  |  | 100 to 250 | Suppression of carrageenin oedema in the paw (antiphlogistic activity) ([4]; 63 mg/kg p.o.): 17%; Suppression of carrageenin oedema in the paw (antiphlogistic activity) ([4]; 100 mg/kg p.o.): 59%
CCCCCC(C)NCc1ccccc1Cl (stereo not shown) [compound 9] |  |  |  | 100 to 250 | 
CCCCCC(C)NCc1ccccc1Br (stereo not shown) [compound 12] | +12 |  |  | 100 to 250 | 
Cc1cc(C)c(CNC(C)CCCC(C)(C)O)c(C)c1 (stereo not shown) [compound 31] |  |  |  |  | Relative change in blood flow, vaso-dilator activity (perfused rabbit ear; 10^-4 g/ml): +87; Relative change in blood flow, vaso-dilator activity (perfused rabbit ear; 10^-5 g/ml): +41; Relative change in blood flow, vaso-dilator activity (perfused rabbit ear; 10^-6 g/ml): +12; Histamine rash test, blue coloration score (0 = none, 2 = indications, 4 = clear, 6 = strong) ([2]; 10.0 mg/kg i.p.): 2.6; LD50 ([3]; iv): 50 to 100 mg/kg; Suppression of carrageenin oedema in the paw (antiphlogistic activity) ([4]; 200 mg/kg p.o.): 26%
CCCCCC(C)NCc1cc(C(C)(C)C)ccc1C (stereo not shown) [compound 6] |  | +129 | +187 |  | 
CCCCCCCNCc1c(C)cc(C)cc1C [compound 16] |  | +55 | +61 | 50 to 100 | 
Cc1cc(C)c(CNCCCOC(C)C)c(C)c1 [compound 23] |  |  |  | 100 to 250 | 
Cc1cc(C)c(CNC(C)CCCC(C)C)c(C)c1 (stereo not shown) [compound 29] | +19 |  | +111 | 50 to 100 | Histamine rash test, blue coloration score (0 = none, 2 = indications, 4 = clear, 6 = strong) ([2]; 1.0 mg/kg i.p.): 3.3; Histamine rash test, blue coloration score (0 = none, 2 = indications, 4 = clear, 6 = strong) ([2]; 3.0 mg/kg i.p.): 1.7
CC(N)CCCC(C)(C)O (stereo not shown) [Heptaminol, 6-amino-2-methylheptane-2-ol, reference compound] |  | 0 | 0 |  | Increase in tonus, isolated rat's portal vein (isolated portal vein; 10^-4 g/ml): +47 milligrams; Increase in tonus, isolated rat's portal vein (isolated portal vein; 10^-5 g/ml): +9 milligrams; Increase in tonus, isolated rat's portal vein (isolated portal vein; 10^-6 g/ml): +9 milligrams; Effect on vessels of the tonicised rabbit ear (perfused rabbit ear; in words): intensifies the Ringer-Norfenefrin constriction in the rabbit ear; Control test with heptaminol, rabbit ear (footnote ++) (perfused rabbit ear; mark in 10^-4 g/ml line): constriction; Relative change in coronary blood flow [1, 8]: 0; Effect on coronary vessels of the guinea-pig heart ([1]; in words): no effect on the guinea-pig heart
CCCCCCNCc1c(C)cc(C)cc1C [compound 15] |  |  | +68 | 50 to 100 | Relative change in coronary blood flow, second figure after slash ([1]; 30 μg): -21; Relative change in coronary blood flow, second figure after slash ([1]; 100 μg): -17; Relative change in coronary blood flow [1, 8]: +85
CCOCCCNCc1c(C)cc(C)cc1C [compound 21] |  | +22 | +23 | 50 to 100 | 
